Like-named read-outs stand apart in the source and are kept apart here. Values belong to the compound of their own block, whether it stands above or below them.
What was measured:
[1] = Log P (1-octanol/water partition, gamma counting); assay type: physicochemical; settings: 1-octanol/H2O, mean ± SD, n = 3 (free 52Mn n = 2)
Protocol: An aliquot (500 μL) of each layer was then added to an Eppendorf. An aliquot (20 μL) of the [^52Mn]Mn-porphyrin reaction mixture was then added to the two layers and vortexed for 5 min. After mixing, the suspension was […] briefly for 10 s to settle the layers, and 200 μL of each layer was extracted. The octanol and H2O layers were then gamma counted (Wallac CompuGamma) and the Log P was calculated as below: LogP=LogActivityCPMin octanol layer/ActivityCPMinwaterlayer

[2] = design: method as in PMID 3821476; settings: up to 9 days, UV-spectroscopy; cited from earlier work
various cell lines = settings: cited from earlier work
[3] = Solubility in aqueous and organic solvents; assay type: physicochemical

- Log P value [1]: −2.4 ± 0.7
Compound: [Cl][52Mn][Cl] [Buffered ^52Mn, [^52Mn]MnCl2]

Compound: O=S(=O)([O-])c1ccc(-c2c3nc(c(-c4ccc(S(=O)(=O)[O-])cc4)c4ccc([n-]4)c(-c4ccc(S(=O)(=O)[O-])cc4)c4ccc([n-]4)c(-c4ccc(S(=O)(=O)[O-])cc4)c4nc2C=C4)C=C3)cc1.[Mn+3] [Mn-(5)]
- stability in human plasma [2]: stable

Compound: [89Zr+4].[O-]c1cccc2cccnc12.[O-]c1cccc2cccnc12.[O-]c1cccc2cccnc12.[O-]c1cccc2cccnc12 [[^89Zr]Zr-oxine]
- cellular retention (various cell lines; later timepoints (5–7 days)): at least 30%
- cellular retention (various cell lines; various cell lines, after 24 h): > 65%

Compound: CNS(=O)(=O)c1ccc(F)c(-c2c3nc(c(-c4c(F)ccc(S(=O)(=O)NC)c4F)c4ccc([nH]4)c(-c4c(F)ccc(S(=O)(=O)NC)c4F)c4nc(c(-c5c(F)ccc(S(=O)(=O)NC)c5F)c5ccc2[nH]5)C=C4)C=C3)c1F [porphyrin 2]
- solubility [3]: favourable solubility in aqueous and organic solvents
- solubility ([3]; listed as Porphyrin 2): favourable solubility in both aqueous and organic solvents

— article PMC10236072, “Microwave-assisted synthesis of [^52Mn]Mn-porphyrins: Applications in cell and liposome radiolabelling” (Nuclear Medicine and Biology, 2022)
